Assay results as given in patent US6734182B2, “Aryl sulfonamides and sulfamide derivatives and uses thereof” (Synaptic Pharmaceutical Corporation, priority 1995, dated 2004).

Key:
human Y2 receptor = target: T1, human Y2 receptor (Homo sapiens, UniProt P49146); assay: Radioligand binding to cloned human Y2 receptor (125I-PYY); settings: cloned human Y2, stably transfected cells, read-out: Binding Affinity (K1 (nM) vs. 125I-PYY) Human Receptor Y2
T1 construct: expressed in transfected cells
T1 sequence (P49146 1-381): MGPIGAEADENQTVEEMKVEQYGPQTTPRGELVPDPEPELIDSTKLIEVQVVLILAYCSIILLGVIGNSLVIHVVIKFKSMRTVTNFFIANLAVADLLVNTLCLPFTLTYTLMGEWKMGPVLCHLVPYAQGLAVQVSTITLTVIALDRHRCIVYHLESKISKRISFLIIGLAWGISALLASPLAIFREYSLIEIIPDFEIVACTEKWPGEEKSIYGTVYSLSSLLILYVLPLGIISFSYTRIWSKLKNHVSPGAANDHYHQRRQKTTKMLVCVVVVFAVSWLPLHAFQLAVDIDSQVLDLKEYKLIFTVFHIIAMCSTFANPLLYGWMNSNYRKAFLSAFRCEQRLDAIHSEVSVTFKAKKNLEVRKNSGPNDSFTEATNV
Method: Human Y1, human Y2, and rat Y5 receptors were co-transfected with a G-418 resistant gene into the human embryonic kidney 293 cell line by a calcium phosphate transfection method (Cullen, 1987). Stably transfected cells were selected with G-418. Human Y4 and human Y5 receptors were similarly transfected into mouse fibroblast LM(tk−) cells and NIH-3T3 cells.
Binding of the compounds of the present invention to the human Y1, Y2, Y4 and Y5 receptors was evaluated using stably transfected 293 or LM(tk−) cells as described above. Stably transfected cell lines which may be used for binding assays include, for example, for the human Y1 receptor, 293-hY1-5 (deposited Jun. 4, 1996, under ATCC Accession No. CRL-12121), for the human Y2 receptor, 293-hY2-10 (deposited Jan. 27, 1994, under ATCC Accession No. CRL-11537), for the human Y4 receptor, L-hY4-3 (deposited Jan. 11, 1995, under ATCC Accession No. CRL-11779), and for the human Y5 receptor, L-hY5-7 (deposited Nov. 15, 1995, under ATCC Accession No. CRL-11995).
Membranes were harvested from COS-7 cells 48 hours after transient transfection. Adherent cells were washed twice in ice-cold phosphate buffered saline (138 mM NaCl, 8.1 mM Na2HPO4, 2.5 mM KCl, […], 0.9 mM CaCl2, 0.5 mM MgCl2, pH 7.4) and lysed by sonication in ice-cold sonication buffer (20 mM Tris-HCl, 5 mM EDTA, pH 7.7). Large particles and debris were cleared by low speed centrifugation (200 x g, 5 min, 4° C.). Membranes were collected from the supernatant fraction by centrifugation (32,000 x g, 18 min, […] ), washed with ice-cold hypotonic buffer, and collected again by centrifugation (32,000 x g, 18 min, 4° C.). […] Protein concentration was measured by the Bradford method (Bradford, 1976) using Bio-Rad Reagent, with bovine serum albumin as a standard. Membranes were held on ice for up to one hour and used fresh, or flash-frozen and stored in liquid nitrogen.
Membranes were prepared similarly from 293, LM(tk−), and NIH-3T3 cells. To prepare membranes from baculovirus infected cells, 2×10^7 Sf21 cells were grown in 150 mm tissue culture dishes and infected with a high-titer stock of hY5BB3. Cells were incubated for 2-4 days at 27° C., no CO2 be fore harvesting and membrane preparation as described above.

human 5HT7 receptor = target: T2, human 5HT7 receptor (Homo sapiens, UniProt P34969); assay: Binding to human 5HT7 receptor; settings: cloned human receptor
T2 construct: expressed in transfected cells
T2 sequence (P34969 whole entry): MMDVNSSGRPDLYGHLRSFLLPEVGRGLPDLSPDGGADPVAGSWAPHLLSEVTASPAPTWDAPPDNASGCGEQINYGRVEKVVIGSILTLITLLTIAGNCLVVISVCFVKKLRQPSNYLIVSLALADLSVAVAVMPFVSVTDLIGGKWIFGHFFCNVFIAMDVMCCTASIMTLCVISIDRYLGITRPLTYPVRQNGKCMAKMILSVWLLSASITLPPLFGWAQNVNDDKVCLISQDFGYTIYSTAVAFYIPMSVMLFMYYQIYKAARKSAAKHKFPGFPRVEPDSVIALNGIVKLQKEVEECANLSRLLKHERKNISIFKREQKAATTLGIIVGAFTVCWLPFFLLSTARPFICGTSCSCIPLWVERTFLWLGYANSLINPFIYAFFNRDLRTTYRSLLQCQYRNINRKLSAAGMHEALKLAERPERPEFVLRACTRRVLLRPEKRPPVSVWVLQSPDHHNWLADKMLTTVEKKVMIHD

human α2B receptor = target: T3, human α2B receptor (Homo sapiens, UniProt P18089); assay: Binding to cloned human α2B adrenergic receptor ([3H]rauwolscine)
T3 construct: expressed in transfected cells
T3 sequence (P18089 whole entry): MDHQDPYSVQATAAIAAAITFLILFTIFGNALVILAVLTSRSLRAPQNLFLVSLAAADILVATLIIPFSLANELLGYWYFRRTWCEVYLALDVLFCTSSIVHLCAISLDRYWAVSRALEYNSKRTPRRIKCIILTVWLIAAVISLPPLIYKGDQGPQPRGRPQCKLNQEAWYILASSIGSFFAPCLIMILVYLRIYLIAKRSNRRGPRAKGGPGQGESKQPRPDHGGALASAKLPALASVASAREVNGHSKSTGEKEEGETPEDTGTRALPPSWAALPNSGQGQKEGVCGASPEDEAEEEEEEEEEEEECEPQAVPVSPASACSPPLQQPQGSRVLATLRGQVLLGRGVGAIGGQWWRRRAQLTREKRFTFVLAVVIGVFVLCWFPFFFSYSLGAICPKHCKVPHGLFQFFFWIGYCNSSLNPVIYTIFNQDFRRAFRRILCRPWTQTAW

human α1b receptor = target: T4, human α1b receptor (Homo sapiens, UniProt P35368); assay: Binding to cloned human α1b adrenergic receptor
T4 construct: expressed in transfected cells
T4 sequence (P35368 whole entry): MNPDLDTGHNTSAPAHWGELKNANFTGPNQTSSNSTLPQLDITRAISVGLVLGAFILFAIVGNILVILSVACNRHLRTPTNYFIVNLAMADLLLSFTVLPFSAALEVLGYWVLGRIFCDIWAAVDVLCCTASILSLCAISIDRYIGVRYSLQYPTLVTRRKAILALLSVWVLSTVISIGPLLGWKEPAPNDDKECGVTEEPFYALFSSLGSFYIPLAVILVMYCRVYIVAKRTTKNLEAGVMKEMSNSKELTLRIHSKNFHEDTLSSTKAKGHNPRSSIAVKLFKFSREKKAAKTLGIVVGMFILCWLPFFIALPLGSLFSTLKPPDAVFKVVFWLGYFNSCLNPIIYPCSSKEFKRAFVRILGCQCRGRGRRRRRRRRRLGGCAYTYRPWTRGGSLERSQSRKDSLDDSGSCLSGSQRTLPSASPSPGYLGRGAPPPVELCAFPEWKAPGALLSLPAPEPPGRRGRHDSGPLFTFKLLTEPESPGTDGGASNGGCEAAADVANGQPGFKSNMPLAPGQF

human 5HT1Dα receptor = target: T5, human 5HT1Dα receptor (Homo sapiens, UniProt P28221); assay: Binding to human 5HT1Dα receptor ([3H]serotonin); settings: cloned human receptor
T5 construct: expressed in transfected cells
T5 sequence (P28221 whole entry): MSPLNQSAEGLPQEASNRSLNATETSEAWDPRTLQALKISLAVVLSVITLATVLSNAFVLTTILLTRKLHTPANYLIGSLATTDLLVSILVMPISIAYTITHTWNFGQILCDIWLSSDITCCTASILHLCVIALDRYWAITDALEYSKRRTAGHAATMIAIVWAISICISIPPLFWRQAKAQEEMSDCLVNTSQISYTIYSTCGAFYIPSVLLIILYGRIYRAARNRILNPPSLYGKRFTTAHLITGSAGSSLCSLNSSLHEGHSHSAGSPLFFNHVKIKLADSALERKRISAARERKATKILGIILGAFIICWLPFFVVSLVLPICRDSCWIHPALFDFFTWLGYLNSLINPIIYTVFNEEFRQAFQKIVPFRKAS

human α1d receptor = target: T6, human α1d receptor (Homo sapiens, UniProt P25100); assay: Binding to cloned human α1d adrenergic receptor
T6 construct: expressed in transfected cells
T6 sequence (P25100 whole entry): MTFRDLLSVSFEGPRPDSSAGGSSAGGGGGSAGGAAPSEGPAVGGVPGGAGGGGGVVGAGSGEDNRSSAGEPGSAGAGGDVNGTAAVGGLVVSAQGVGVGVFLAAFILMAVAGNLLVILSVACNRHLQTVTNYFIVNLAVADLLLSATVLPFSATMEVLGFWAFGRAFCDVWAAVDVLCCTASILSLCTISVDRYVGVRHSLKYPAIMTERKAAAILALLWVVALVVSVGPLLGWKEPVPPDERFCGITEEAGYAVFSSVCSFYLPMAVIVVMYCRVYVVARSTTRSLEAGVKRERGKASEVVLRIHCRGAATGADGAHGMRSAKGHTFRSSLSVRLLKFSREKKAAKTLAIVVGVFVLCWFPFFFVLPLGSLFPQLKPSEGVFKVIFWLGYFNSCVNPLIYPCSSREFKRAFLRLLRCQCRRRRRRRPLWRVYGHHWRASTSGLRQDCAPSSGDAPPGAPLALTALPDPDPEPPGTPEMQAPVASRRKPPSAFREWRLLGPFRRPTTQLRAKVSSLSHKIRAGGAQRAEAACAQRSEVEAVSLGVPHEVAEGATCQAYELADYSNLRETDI

human 5HT1E receptor = target: T7, human 5HT1E receptor (Homo sapiens, UniProt P28566); assay: Binding to human 5HT1E receptor ([3H]serotonin); settings: cloned human receptor
T7 construct: expressed in transfected cells
T7 sequence (P28566 whole entry): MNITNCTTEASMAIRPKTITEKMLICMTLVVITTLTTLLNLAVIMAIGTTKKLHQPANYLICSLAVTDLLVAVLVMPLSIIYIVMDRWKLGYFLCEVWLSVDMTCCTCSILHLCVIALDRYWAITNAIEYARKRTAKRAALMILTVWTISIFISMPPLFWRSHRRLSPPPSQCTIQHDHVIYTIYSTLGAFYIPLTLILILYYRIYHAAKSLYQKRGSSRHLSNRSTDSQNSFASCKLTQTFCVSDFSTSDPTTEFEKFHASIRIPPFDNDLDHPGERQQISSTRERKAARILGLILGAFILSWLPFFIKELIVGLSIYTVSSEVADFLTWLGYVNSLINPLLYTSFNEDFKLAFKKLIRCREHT
Method: 5HT1Dα, 5HT1Dβ, 5HT1E, 5HT1F Receptors: LM(tk−) clonal cell lines stably transfected with the genes encoding each of these 5HT receptor subtypes were prepared as described above. The cell line for the 5HT1Dα, receptor, designated as Ltk−8-30-84, was deposited on Apr. 17, 1990, and accorded ATCC Accession No. CRL 10421. The cell for the 5HT1Dβ receptor, designated as Ltk−11, was deposited on Apr. 17, 1990, and accorded ATCC Accession No. CRL 10422. The cell line for the 5HT1E receptor, designated 5 HT1E-7, was deposited on Nov. 6, 1991, and accorded ATCC Accession No. CRL 10913. The cell line for the 5HT1F receptor, designated L-5-HT1F, was deposited on Dec. 27, 1991, and accorded ATCC Accession No. ATCC 10957. Membrane preparations comprising these receptors were prepared as described below, and suspended in 50 mM Tris-HCl buffer (pH 7.4 at 37° C.) containing 10 mM MgCl2, 0.2 mM EDTA, 10 μM pargyline, and 0.1% ascorbate. The binding of compounds was determined in competition binding assays by incubation for 30 minutes at 37° C. in the presence of 5 nM [^3H) serotonin. Nonspecific binding was determined in the presence of 10 μM serotonin. The bound radioligand was separated by filtration through GF/B filters using a cell harvester.

human Y5 receptor = target: T8, human Y5 receptor (Homo sapiens, UniProt Q15761); assay: Radioligand binding to cloned human Y5 receptor (125I-PYY); settings: cloned human Y5, stably transfected cells, read-out: Binding Affinity (K1 (nM) vs. 125I-PYY) Human Receptor Y5
T8 construct: expressed in transfected cells
T8 sequence (Q15761 1-445): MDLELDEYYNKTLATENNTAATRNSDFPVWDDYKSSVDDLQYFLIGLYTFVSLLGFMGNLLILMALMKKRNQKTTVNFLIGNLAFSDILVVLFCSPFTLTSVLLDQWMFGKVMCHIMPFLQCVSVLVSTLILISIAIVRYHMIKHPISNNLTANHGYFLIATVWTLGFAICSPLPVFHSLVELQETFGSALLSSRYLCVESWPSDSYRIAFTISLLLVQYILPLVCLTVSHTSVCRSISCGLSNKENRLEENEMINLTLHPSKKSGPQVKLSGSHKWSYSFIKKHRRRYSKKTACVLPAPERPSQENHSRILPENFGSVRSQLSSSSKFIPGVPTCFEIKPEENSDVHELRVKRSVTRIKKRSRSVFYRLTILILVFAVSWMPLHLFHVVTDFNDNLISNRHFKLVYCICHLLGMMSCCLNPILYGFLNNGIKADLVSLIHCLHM

human α2A receptor = target: T9, human α2A receptor (Homo sapiens, UniProt P08913); assay: Binding to cloned human α2A adrenergic receptor ([3H]rauwolscine)
T9 construct: expressed in transfected cells
T9 sequence (P08913 whole entry): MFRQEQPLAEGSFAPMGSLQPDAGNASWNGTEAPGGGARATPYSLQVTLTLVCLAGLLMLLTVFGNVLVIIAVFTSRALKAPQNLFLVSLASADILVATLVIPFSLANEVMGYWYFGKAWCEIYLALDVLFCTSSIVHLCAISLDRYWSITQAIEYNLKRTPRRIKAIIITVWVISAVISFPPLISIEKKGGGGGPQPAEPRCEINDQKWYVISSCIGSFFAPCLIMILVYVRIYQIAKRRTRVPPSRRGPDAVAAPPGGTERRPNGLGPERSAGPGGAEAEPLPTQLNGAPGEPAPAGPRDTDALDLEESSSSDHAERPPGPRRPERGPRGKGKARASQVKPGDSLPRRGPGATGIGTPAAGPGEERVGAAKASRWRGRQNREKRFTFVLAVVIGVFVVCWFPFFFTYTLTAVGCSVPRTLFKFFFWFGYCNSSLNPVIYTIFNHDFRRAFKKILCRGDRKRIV

Row | Ki (human Y2 receptor) | Receptor (pKi) 5HT7 (human 5HT7 receptor) | Receptor (pKi) α2b (human α2B receptor) | Receptor (pKi) α1b (human α1b receptor) | Receptor (pKi) 5HT1Dα (human 5HT1Dα receptor) | Receptor (pKi) α1d (human α1d receptor) | Receptor (pKi) 5HT1E (human 5HT1E receptor) | Ki (human Y5 receptor) | Receptor (pKi) α2a (human α2A receptor) | Structure (SMILES)
1 | 955 nM | 6.42 | 6.58 | 7.35 | 6.04 | 6.90 | ≤ 5.30 | 11 nM | 6.74 | Cl.O=S(=O)(NCC1CCC(CNCC2CCc3ccccc3C2)CC1)c1cccc2ccccc12 (stereo not drawn) [Example 32]
2 | 7760 nM | 6.37 | 6.96 | 7.22 | 5.94 | 7.01 | ≤ 5.30 | 8.3 nM | 7.31 | Cl.O=[N+]([O-])c1ccccc1S(=O)(=O)NCC1CCC(CNCC2CCc3ccccc3C2)CC1 (stereo not drawn) [Example 36]
